# Test results reported in US20140079632A1, “ACTIVITY-BASED PROBES FOR THE UROKINASE P[…]” (UNIVERSITEIT ANTWERPEN, priority 2011, published 2014).
# Legend:
# Type in all cases: biochemical
# [1] = target: T1, uPA (Homo sapiens, UniProt P00749); experiment: uPA inhibition: in vitro evaluation, IC50 with chromogenic substrate Biophen CS-61(44); conditions: 15 min preincubation at 37° C.; Tris buffer pH 8.8; 250 μM substrate
# T1 construct: purchased Nodia
# Experimental: Enzymatic activity was measured at 37° C. in a Spectramax 340 (Molecular Devices) microtiter plate reader using the chromogenic substrate Biophen CS-61(44) (LpyroGlu-Gly L-Arg-p-NA.HCl), with a Km of 80 μM.
# (§1) The substrate and human enzyme were obtained from Nodia. The reaction was monitored at 405 nm, and the initial rate was determined between 0 and 0.25 absorbance units in 20 min. The reaction mixture contained 250 μM substrate and approximately 1 mU of enzyme in 145 μL of buffer in a final volume of 200 μL. A 50 mM Tris buffer, pH 8.8, was used. From each inhibitor concentration, 5 μL was added, obtaining a final concentration from 0 to 250 μM in a total volume of 0.2 mL. Activity measurements were routinely performed in duplicate. […] IC50 values were obtained by fitting the data with the four-parameter logistics equation using Grafit 5.
# where s=slope factor, v=rate, I0=inhibitor concentration, and range=the fitted uninhibited value minus the background. The equation assumes the y falls with increasing x.
# (§2) Inhibitor stock solutions were prepared in DMSO and stored at −20° C. Because the compounds described in this paper completely inactivate uPA following pseudofirst-order kinetics, the IC50 value is inversely correlated with the second-order rate constant of inactivation. For a simple pseudofirst-order inactivation process, the activity after incubation with inhibitor (vi) varies with the inhibitor concentration (i), as described in the following equation: […]
# [2] = target: T1, uPA; experiment: uPA inactivation kinetics from progress curves (kobs versus inhibitor concentration, kapp); conditions: 250 μM substrate, 37° C.
# Experimental: as §2
# where vo is the activity in absence of inhibitor, k is the second-order rate constant of inactivation, and t is the time. The inactivation rate constant was determined from the time course of inhibition.
# The inhibitor was mixed with the substrate (250 μM final concentration), and the buffer solution with the enzyme was added at the time zero. The inhibitor concentrations were chosen to obtain total inhibition of the enzyme within 20 min. The progress curves show the absorbance of p-nitroanilide produced as a function of time. Initially, no inhibitor is bound to the enzyme, and the tangent to the progress curve (dA/dt) is proportional to the concentration of the free enzyme. The concentration of free enzyme decreases over time due to the kinetics of inhibitor binding, as described above. Progress curves were recorded in pseudofirst-order conditions ([I]0>>[E]0) and with less than 10% conversion of the substrate during the entire time course. In these conditions, dA/dt decreases exponentially with time. The progress curves were fitted with the integrated rate equation to yield a value for kobs, a pseudofirst-order rate constant
# At=v0[1−e^−k^obs^t]/kobs+A0
# where At=absorbance at time t, A0=absorbance at time zero, and v0=uninhibited initial rate.
# The apparent second-order rate constant (kapp) was calculated from the slope of the linear part of the plot of kobs versus the inhibitor concentration ([I]0). In case of competition between the inhibitor and the substrate, kapp is smaller than the “real” second order rate constant k discussed above because a certain fraction of the enzyme is present as an enzyme-substrate complex. kapp depends on the substrate concentration used in the experiment, as described by Lambeir et al.^40 For most final compounds, the kobs versus [I]0 plot was not linear, but could be fitted with a hyperbolic function: kobs=k2[I]0/(K1+[I]0) (two step mechanism). Where K1 is the dissociation constant of the reversible enzyme-inhibitor complex and k2 is the first-order rate constant associated with irreversible modification of the enzyme. A kapp could be calculated as k2/K1.
# [3] = target: T2, tPA (recombinant) (Homo sapiens, UniProt P00750); experiment: Selectivity: tPA inhibition, substrate Biophen CS-05(88); conditions: for IC50: 15 min preincubation, Tris buffer pH 8.3, 1.25 mM substrate
# T2 construct: purchased Nodia
# T2 sequence (P00750 36-562, species assumed): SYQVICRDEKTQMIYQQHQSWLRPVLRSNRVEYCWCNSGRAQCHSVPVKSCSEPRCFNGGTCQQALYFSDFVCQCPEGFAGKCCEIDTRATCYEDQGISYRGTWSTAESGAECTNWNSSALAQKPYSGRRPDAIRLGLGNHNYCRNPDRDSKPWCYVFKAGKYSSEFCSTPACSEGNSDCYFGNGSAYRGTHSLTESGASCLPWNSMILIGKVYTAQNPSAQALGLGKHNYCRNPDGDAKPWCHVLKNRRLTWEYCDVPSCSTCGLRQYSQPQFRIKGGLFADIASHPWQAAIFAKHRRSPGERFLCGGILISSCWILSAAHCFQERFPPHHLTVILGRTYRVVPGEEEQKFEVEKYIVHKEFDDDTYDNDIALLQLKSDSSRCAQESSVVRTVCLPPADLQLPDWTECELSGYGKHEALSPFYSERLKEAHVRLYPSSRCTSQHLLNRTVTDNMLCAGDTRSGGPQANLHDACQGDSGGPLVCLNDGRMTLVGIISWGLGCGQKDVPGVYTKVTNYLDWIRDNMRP
# Experimental: as §1, with “The reaction mixture contained 250 μM substrate and approximately 1 mU of enzyme in 145 μL of buffer in a final volume of 200 μL.” left out
# (§3) The IC50 values for plasmin (from human plasma, Sigma), tPA (recombinant, Nodia), thrombin (from human plasma, Sigma), and FXa were determined in the same way as for uPA.
# (§4) For tPA and thrombin, Tris buffer, pH 8.3, was used, for FXa, Tris buffer, pH 8.3, for plasmin, Tris buffer, pH 7.4, was used.
# [4] = target: T3, thrombin (from human plasma) (Homo sapiens, UniProt P00734); experiment: Selectivity: thrombin inhibition, substrate Biophen CS-21(66); conditions: 15 min preincubation; Tris buffer pH 8.3; 580 μM substrate
# T3 construct: thrombin (from human plasma, Sigma); purchased Sigma; host or cells: human plasma
# Experimental: as §1, with “The reaction mixture contained 250 μM substrate and approximately 1 mU of enzyme in 145 μL of buffer in a final volume of 200 μL.” left out
# as §3, §4
# [5] = target: T4, plasmin (from human plasma) (Homo sapiens, UniProt P00747); experiment: Selectivity: plasmin inhibition, substrate Biophen CS-21(66); conditions: 15 min preincubation; Tris buffer pH 7.4; 580 μM substrate
# T4 construct: purchased Sigma; host or cells: human plasma
# T4 sequence (P00747 581-810 limits assumed): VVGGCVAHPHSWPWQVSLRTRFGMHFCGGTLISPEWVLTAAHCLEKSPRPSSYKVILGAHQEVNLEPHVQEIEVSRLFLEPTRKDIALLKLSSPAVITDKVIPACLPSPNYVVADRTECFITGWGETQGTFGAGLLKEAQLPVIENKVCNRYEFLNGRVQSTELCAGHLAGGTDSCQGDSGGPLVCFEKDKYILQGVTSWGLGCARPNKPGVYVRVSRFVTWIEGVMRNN
# T4 sequence (P00747 97-580 partner limits assumed): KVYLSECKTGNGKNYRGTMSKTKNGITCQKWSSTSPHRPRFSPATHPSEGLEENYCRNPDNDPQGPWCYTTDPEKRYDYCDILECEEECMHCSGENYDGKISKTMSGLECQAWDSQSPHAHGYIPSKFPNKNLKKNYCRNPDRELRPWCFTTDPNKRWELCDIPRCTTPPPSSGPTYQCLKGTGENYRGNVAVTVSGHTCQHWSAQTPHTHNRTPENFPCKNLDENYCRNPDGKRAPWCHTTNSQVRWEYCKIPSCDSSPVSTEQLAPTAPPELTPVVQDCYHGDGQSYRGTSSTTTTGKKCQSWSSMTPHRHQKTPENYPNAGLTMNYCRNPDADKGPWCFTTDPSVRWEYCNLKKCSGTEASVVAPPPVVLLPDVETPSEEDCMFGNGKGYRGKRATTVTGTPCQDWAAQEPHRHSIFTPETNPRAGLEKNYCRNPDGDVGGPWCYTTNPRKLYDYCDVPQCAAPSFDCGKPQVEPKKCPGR
# Experimental: as §1, with “The reaction mixture contained 250 μM substrate and approximately 1 mU of enzyme in 145 μL of buffer in a final volume of 200 μL.” left out
# as §3, §4
# [6] = target: FXa (Homo sapiens, UniProt P00742); experiment: Selectivity: FXa inhibition, substrate Biophen CS-11(32); conditions: for FXa % (I) @ 250: at 250 (μM); for IC50: 15 min preincubation, Tris buffer pH 8.3, 522 μM substrate
# FXa, sequence (P00742 235-488 limits assumed): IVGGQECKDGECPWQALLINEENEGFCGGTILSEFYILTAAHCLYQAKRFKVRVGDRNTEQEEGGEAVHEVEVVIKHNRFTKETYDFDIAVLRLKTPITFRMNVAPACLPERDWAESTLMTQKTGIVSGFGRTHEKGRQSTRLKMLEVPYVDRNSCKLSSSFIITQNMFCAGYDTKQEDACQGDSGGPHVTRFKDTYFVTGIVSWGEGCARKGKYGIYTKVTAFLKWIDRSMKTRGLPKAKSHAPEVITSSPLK
# FXa, sequence (P00742 41-179 partner limits assumed): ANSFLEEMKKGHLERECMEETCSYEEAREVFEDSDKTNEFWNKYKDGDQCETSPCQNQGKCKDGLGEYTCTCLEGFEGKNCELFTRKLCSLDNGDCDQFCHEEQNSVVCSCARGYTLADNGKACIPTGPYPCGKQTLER
# [7] = asterisked: compound showed a two-step mechanism, kapp calculated as k2/K1
# [8] = apparent second-order rate constant from slope of kobs versus [I]0, no asterisk
smiles,measurement,setting,value
"C#CCOCCOCCOC(=O)NC(Cc1ccc(NC(=N)N)cc1)P(=O)(Oc1ccccc1)Oc1ccccc1.O=C(O)C(F)(F)F (stereo not drawn) [Intermediate 56, 2-(2-(prop-2-ynyloxy)ethoxy)ethyl 1-(diphenoxyphosphoryl)-2-(4-guanidinophenyl)ethylcarbamate 2,2,2-trifluoroacetate]",IC50,[1],0.0085 ± 0.0012 µM
same,uPA: kapp,[2]; [7],12 × 10^3 ± 5 × 10^3 * M^−1 s^−1
same,IC50,[3],65 ± 9 µM
same,IC50,[4],20 ± 3 µM
same,IC50,[5],7.8 ± 0.6 µM
same,FXa % (I) @ 250,[6],58% @ 250
"CCN(CC)c1ccc2c(-c3ccccc3C(=O)N3CCN(C(=O)CCCCCCCn4cc(COCCOCCOCCOC(=O)NC(Cc5ccc(NC(=N)N)cc5)P(=O)(Oc5ccccc5)Oc5ccccc5)nn4)CC3)c3ccc(=[N+](CC)CC)cc-3oc2c1 (stereo not drawn) [Final compound 3, 2,2,2-trifluoroacetic acid, N-(6-(diethylamino)-9-(2-(4-(8-(4-(14-(diphenoxyphosphoryl)-15-(4-guanidinophenyl)-12-oxo-2,5,8,11-tetraoxa-13-azapentadecyl)-1H-1,2,3-triazol-1-yl)octanoyl)piperazine-1-carbonyl)phenyl)-3H-xanthen-3-ylidene)-N-ethylethanaminium chloride]",IC50,[1],0.03 ± 0.006 µM
same,uPA: kapp,[2]; [8],2600 ± 200 M⁻¹ s⁻¹
same,IC50,[3],42 ± 5 µM
same,IC50,[4],13.8 ± 1.3 µM
same,IC50,[5],11 ± 4 µM
same,IC50,[6],39 ± 22 µM
"O=C(O)C(F)(F)F.[N-]=[N+]=NCCCCCCOC(=O)NC(Cc1ccc(NC(=N)N)cc1)P(=O)(Oc1ccccc1)Oc1ccccc1 (stereo not drawn) [Intermediate 59, 6-azidohexyl 1-(diphenoxyphosphoryl)-2-(4-guanidinophenyl)ethylcarbamate 2,2,2-trifluoroacetate]",IC50,[1],0.0096 ± 0.0019 µM
same,uPA: kapp,[2]; [7],14 × 10^3 ± 3 × 10^3 * M^−1 s^−1
same,IC50,[3],16.7 ± 1.7 µM
same,IC50,[4],2.4 ± 0.2 µM
same,IC50,[5],3.6 ± 0.3 µM
same,FXa % (I) @ 250,[6],61% @ 250
"CC1=CC(C)=[N+]2C1=C(CCCCCCCn1cc(CCCOC(=O)NC(Cc3ccc(NC(=N)N)cc3)P(=O)(Oc3ccccc3)Oc3ccccc3)nn1)c1c(C)cc(C)n1[B-]2(F)F.O=C(O)C(F)(F)F (stereo not drawn) [Final compound 6, 10-(7-(4-(3-(((1-(diphenoxyphosphoryl)-2-(4-guanidinophenyl)ethyl)carbamoyl)oxy)propyl)-1-1,2,3-triazol-1-yl)heptyl)-5,5-difluoro-1,3,7,9-tetramethyl-5H-dipyrrolo[1,2-c:2′,1′-f][1,3,2]diazaborinin-4-ium-5-uide 2,2,2-trifluoroacetate]",IC50,[1],0.0467 ± 0.0015 µM
same,uPA: kapp,[2]; [7],12.2 × 10^2 ± 0.5 × 10^2 * M^−1 s^−1
same,tPA % I @ 250,[3]; at 250 (μM),19% I @ 250
same,IC50,[4],~125 µM
same,IC50,[5],0.674 ± 0.123 µM
same,FXa % (I) @ 250,[6],19% I @ 250 ^
"CCN(CC)c1ccc2c(-c3ccccc3C(=O)N3CCN(C(=O)CCCCCCCn4cc(COCCOC(=O)NC(Cc5ccc(NC(=N)N)cc5)P(=O)(Oc5ccccc5)Oc5ccccc5)nn4)CC3)c3ccc(=[N+](CC)CC)cc-3oc2c1.O=C(O)C(F)(F)F.[Cl-] (stereo not drawn) [Final compound 1, 2,2,2-trifluoroacetic acid, N-(6-(diethylamino)-9-(2-(4-(8-(4-((2-(((1-(diphenoxyphosphoryl)-2-(4-guanidinophenyl)ethyl)carbamoyl)oxy)ethoxy)methyl)-1H-1,2,3-triazol-1-yl)octanoyl)piperazine-1-carbonyl)phenyl)-3H-xanthen-3-ylidene)-N-ethylethanaminium chloride]",IC50,[1],0.017 ± 0.002 µM
same,uPA: kapp,[2]; [8],1700 ± 100 M⁻¹ s⁻¹
same,IC50,[3],7.9 ± 0.3 µM
same,IC50,[4],7.9 ± 1.7 µM
same,IC50,[5],5.4 ± 0.6 µM
same,FXa % @ 2.5,[6]; at 2.5 (μM),11% @ 2.5
"Cl.N=C(N)Nc1ccc(CC(NC(=O)OCCCc2cn(CCOCCOCCOCCNC(=O)c3ccc(F)cc3)nn2)P(=O)(Oc2ccccc2)Oc2ccccc2)cc1 (stereo not drawn) [Final compound 8, 3-(1-(1-(4-fluorophenyl)-1-oxo-5,8,11-trioxa-2-azamidecan-13-yl)-1H-1,2,3-triazol-4-yl)propyl (1-(diphenoxyphosphoryl)-2-(4-guanidinophenyl)ethyl)carbamate hydrochloride]",IC50,[1],0.019 ± 0.002 µM
same,uPA: kapp,[2]; [7],68 × 10^2 ± 25 × 10^2 * M^−1 s^−1
same,IC50,[3],46 ± 5 µM
same,IC50,[4],13.2 ± 0.6 µM
same,IC50,[5],5.9 ± 0.8 µM
same,IC50,[6],~62 µM
"C#CCCCOC(=O)NC(Cc1ccc(NC(=N)N)cc1)P(=O)(Oc1ccccc1)Oc1ccccc1.O=C(O)C(F)(F)F (stereo not drawn) [Intermediate 58, pent-4-ynyl 1-(diphenoxyphosphoryl)-2-(4-guanidinophenyl)ethylcarbamate 2,2,2-trifluoroacetate]",IC50,[1],0.008 ± 0.0005 µM
same,uPA: kapp,[2]; [7],30 × 10^3 ± 9 × 10^3 * M^−1 s^−1
same,IC50,[3],29 ± 2 µM
same,IC50,[4],12.2 ± 0.3 µM
same,IC50,[5],3.4 ± 0.4 µM
same,FXa % (I) @ 250,[6],50% @ 250
"C#CCOCCOCCOCCOC(=O)NC(Cc1ccc(NC(=N)N)cc1)P(=O)(Oc1ccccc1)Oc1ccccc1.O=C(O)C(F)(F)F (stereo not drawn) [Intermediate 57, 2-(2-(2-(prop-2-ynyloxy)ethoxy)ethoxy)ethyl 1-(diphenoxyphosphoryl)-2-(4-guanidinophenyl)ethylcarbamate 2,2,2-trifluoroacetate]",IC50,[1],0.011 ± 0.001 µM
same,uPA: kapp,[2]; [7],11 × 10^3 ± 4 × 10^3 * M^−1 s^−1
same,IC50,[3],67 ± 7 µM
same,IC50,[4],21 ± 5 µM
same,IC50,[5],9 ± 2 µM
same,FXa % (I) @ 250,[6],54% @ 250
